Peptide text beside a SMILES is read from it.
What was measured:
Solubility observations = format: physicochemical; settings: physiological pH values
NB2a/d1 cells = assay: Neurite sprouting assay (RSE), NB2a/d1 cells; format: cell-based, mouse; settings: 24 hrs in culture
Procedure: (§1) Two cell lines were used. The mouse neuroblastoma cell line NB2a/dl was grown to confluency in P/100 plastic plates in the presence of Delbecco's medium with 10% fetal calf serum at 36.5° C. in a 5% CO2 atmosphere. Shea, T. B. et al., Dev. Brain Res., 21:307-314 (1985). An adrenergic mouse cell line based on PC12 pheochromocytoma cells was grown on collagen-coated culture plates using 85% RPMI 1640 and 10% heat-inactivated horse serum as the growth medium. Greene, L. A. et al., Proc. Natl. Acad. Sci. USA, 73:2424-2428 (1976). Cultures were grown in P-100 plates from an initial plating of 10^5 cells/ml under sterile conditions using 10 ml of incubation medium. Experimental cultures received a given concentration of protein fragment in 1 ml of serum-free medium. Control cultures received no fragment. Equal numbers of test and control plates were incubated at 35.5° C. in a 95%/5% air/CO2 humified atmosphere, and then examined for neurite growth patterns at 18, 24 and 48 hr after the plating in a phase microscope at a magnification of 100 or 200 ×, as specified.
The test to determine the degree of sprouting was carried out blind to determine (1) the total number of cells present in a given field of observation and (2) the percent of these that have zero and one or two or more process. Twelve microscope fields, each containing 50-100 cells, were randomly selected in each plate and cells counted according to the categories described above. The data for 12 fields in each of two plates for each added protein fragment were combined to obtain an analysis of the percent sprouting (i.e. the % of cells that have one or more processes after 24 hr in culture) for each protein fragment. The ratio, % sprouting in experimental cultures/% sprouting in control cultures, is an index of the "relative sprouting effect" (RSE) of a protein fragment.

NB2a/dl cells = assay: Neurite elongation assay (REE), NB2a/dl cells; format: cell-based, mouse; settings: Conc. 1000 μM, 24 hrs in culture
Procedure: as §1, with “Equal numbers of test and control plates were incubated at 35.5° C. in a 95%/5% air/CO2 humified atmosphere, and then examined for neurite growth patterns at 18, 24 and 48 hr after the plating in a phase microscope at a magnification of 100 or 200 ×, as specified.” left out
(§2) In each of the twelve microscope fields, the length of nerve cell processes (minimum length: 0.5 times the cell body length) was also measured to determine the percentage of nerve elongation after 24 hr. The percentage of total cells that developed a longest process equal to its cell body length was calculated according to the formula in Table V, supra. […]

PC12 cells [1] = assay: Neurite sprouting assay (RSE), PC12 cells; format: cell-based, mouse; settings: Conc. .07 μM, 24 hrs in culture
Procedure: as §1, with “Equal numbers of test and control plates were incubated at 35.5° C. in a 95%/5% air/CO2 humified atmosphere, and then examined for neurite growth patterns at 18, 24 and 48 hr after the plating in a phase microscope at a magnification of 100 or 200 ×, as specified.” left out
The test to determine the degree of sprouting was carried out blind to determine (1) the total number of cells present in a given field of observation and (2) the percent of these that have zero and one or two or more process. Twelve microscope fields, each containing 50-100 cells, were randomly selected in each plate and cells counted according to the categories described above. […]

PC12 cells [2] = assay: Neurite elongation assay (REE), PC12 cells; format: cell-based, mouse
Procedure: as §1, with “Equal numbers of test and control plates were incubated at 35.5° C. in a 95%/5% air/CO2 humified atmosphere, and then examined for neurite growth patterns at 18, 24 and 48 hr after the plating in a phase microscope at a magnification of 100 or 200 ×, as specified.” left out
as §2

In the case of `CC(C)C[C@H](NC(=O)[C@@H](NC(=O)[C@H](CCC(=O)O)NC(=O)[C@H](CCCCN)NC(=O)[C@@H](N)CCCCN)[C@@H](C)O)C(=O)N[C@@H](CCC(N)=O)C(=O)N[C@@H](Cc1ccccc1)C(=O)N[C@@H](CCCNC(=N)N)C(=O)O` [compound 8933, Lys Lys Glu Thr Leu Gln Phe Arg] (H-KKETLQFR-OH), the solubility in saline (Solubility observations) is reported as “highly soluble”.
With `CCCC(=O)Nc1ncnc2c1ncn2[C@@H]1O[C@@H]2COP(=O)(O)O[C@H]2[C@H]1OC(=O)CCC` [dibutyryl cyclic AMP, reference compound] the “RSE (relative sprouting effect)” value (NB2a/d1 cells; Conc. 1000 (μm)) was 1.7 and the “REE (neurite elongation)” value (NB2a/dl cells) was 2.58.
For Nerve growth factor, the “RSE (relative sprouting effect)” value (NB2a/d1 cells; Conc. 0.03 (μm)) was 1.76 ± .034, the “RSE (relative sprouting effect)” value (NB2a/d1 cells; Conc. .07 (μm)) was 1.76 ± .07 and the “RSE (relative sprouting effect)” value (PC12 cells [1]) was 2.9. For the same compound, the “REE (neurite elongation)” value (PC12 cells [2]; Conc. .03 μM, 24 hrs in culture) was 3.30 and the “effect on neurite elongation, result in words” value (PC12 cells [2]; Table IV) was “most significant effects”.

Source: patent publication US5545719A, “Nerve growth peptides” (Neuromedica, Inc., priority 1994, dated 1996)
